Each block holds one molecule with its values, some of them ahead of it. *1 amine or outer side, *2 acyl side, *3 side chain or, on linkers, in order; H or OH if unused. Where a SMILES comes first, the peptide text is derived from it. Bridges are numbered along the chain shown (N, C = ends). [ ]: non-standard residue; d: D form. The star is where a group is joined. DOTA = O=C(O)CN1CCN(CC(=O)O)CCN(CC(=O)*)CCN(CC(=O)O)CC1; TATA = O=C(CC[*:1])N1CN(C(=O)CC[*:2])CN(C(=O)CC[*:3])C1; NOTA = O=C(O)CN1CCN(CC(=O)O)CCN(CC(=O)*)CC1; Hyp = O=C(O)[C@@H]1C[C@@H](O)CN1; hArg = N=C(N)NCCCC[C@H](N)C(=O)O; PEG2 = NCCOCCOCCC(=O)O; Sar = CNCC(=O)O
Columns and labels:
[1] = parameters: species or system C57BL/6 mice; details: mouse, in vivo
Procedure: Male C57BL/6 mice (5-6 weeks old) were used to establish syngeneic tumor by administering KPC cells subcutaneously in top right flank. For this study, 0.5 million cells were inoculated subcutaneously into the upper flank of each animal. Tumor growth was closely monitored, and once tumors became palpable, their volumes were measured using a vernier caliper. Animals were then randomized into groups to ensure balanced baseline tumor sizes, with median volumes of approximately 60 mm^3 (PBS group median: 60 mm^3; radiotherapeutic group median: 57 mm^3). Following randomization, two subsequent doses of 0.5 µCi of [^225Ac]AJ210 were administered intravenously with the interval of 24 h. Similarly, saline was administered in the control group. Measurements of tumor volume and body weight were conducted in alternative days until the end of study. Blood was collected retro-orbitally at 3-, 7- and 28-days post radiotherapy injection and hematological parameter were assessed using SCIL Vet ABC Plus instrument.
Tissue blocks and slides of liver, kidneys and lungs were prepared by JHU histology core and staining was also carried out by the Core. Briefly, tissue samples were fixed in formalin for 24 h and rinsed with PBS and stored in PBS. These tissue samples were dehydrated through graded ethanol series, cleared in xylene, and embedded in paraffin. Sections (4-5 µm thick) were cut using a microtome and mounted on glass slides. The slides were deparaffinized in xylene, rehydrated through graded ethanol to distilled water, and stained with hematoxylin for 5 min. After rinsing in running water, sections were differentiated in 1% acid alcohol, blued in ammonia water, and counterstained with eosin for 1-2 min. Slides were dehydrated, cleared in xylene, and mounted with a coverslip using a permanent mounting medium. Images were captured under a brightfield microscope to evaluate tissue structure and histopathological features.

human EphA2 = target: T1, human EphA2 (Homo sapiens, UniProt P29317); assay: SPR binding affinity (Biacore T200, CM5 chip); details: 25 °C, HBS-P + 0.1% DMSO, 1:1 kinetics model
T1 construct: purchased R&D systems 3035-A2
Procedure: (§1) All experiments were conducted using a Biacore T200 instrument (GE Healthcare Life Sciences) with a CM5 chip at 25 °C. His-tagged human EphA2 (R&D systems, catalog # 3035-A2, 56.9 kDa, 4.46 μM stock concentration) and mouse EphA2 (SinoBiological, cat.# 50586-M08H, 58 kDa, 8.6 μM stock concentration) were immobilized onto the CM5 chip. AJ201 (3328.8 Da, 10 mM stock concentration) and AJ210 (3072.5 Da, 10 mM stock concentration) were used as analyte to flow over the ligand immobilized surface. Flow Cell (FC) 1 was used as the reference for FC2, FC3 for FC4. Anti-His antibody (2 mg/ml stock concentration) was diluted (1:100 dilution, 0.02 mg/ml diluted concentration) in 10 mM sodium acetate buffer at pH 4.5 and immobilized on all FCs to a level of ~8000 to 11000 RU using the standard amine coupling chemistry. HBS-P (10 mM HEPES pH 7.4, 150 mM NaCl, 0.05% v/v surfactant P20) was used as the immobilization running buffer. Human EphA2 was diluted (1:5 dilution) in HBS-P captured onto FC2 to a level of ~750 RU. Mouse EphA2 was diluted (1:10 dilution) in HBS-P captured onto FC4 to a level of ~750 RU. HBS-P was used as the capture running buffer. The Rmax values assume 1:1 interaction mechanism. Overnight kinetics were performed for all analytes in the presence of HBS-P+0.1% DMSO. The flow rate of all analyte solutions was maintained at 50 μL/min. The contact and dissociation times used were 120s and 600s, respectively. Glycine solution (pH 1.5) was injected for 15 s for surface regeneration and fresh ligands were captured in the beginning of each injection cycle. Sensorgrams from the overnight kinetics was evaluated by using 1:1 kinetics model fitting.

mouse EphA2 = target: T2, mouse EphA2 (Mus musculus, UniProt Q03145); assay: SPR binding affinity (Biacore T200, CM5 chip); details: 25 °C, HBS-P + 0.1% DMSO, 1:1 kinetics model
T2 construct: purchased SinoBiological 50586-M08H
Procedure: as §1

Ex vivo biodistribution [2] = assay: Ex vivo biodistribution; parameters: species or system NSG mice; details: both sexes, NSG, mouse, in vivo, 50 uCi, total radioactivity
Procedure: Animal studies were performed under Johns Hopkins University Animal Care and Use Committee (ACUC)-approved protocol (Principal investigator: Sridhar Nimmagadda, Ph.D. and Protocol number M021M175). Male and Female NSG mice (5-6 weeks old) were purchased from JHU immunocompromised core and used to establish xenografts by administering cells subcutaneously (top right flank, unless otherwise noted) to form various tumor models within 3-4 weeks. Following cell numbers were used: Panc1, AsPC1, BxPC3 (1 M), Hs766T and SU8686 (2 M), CFPAC and Panc1005 (5 M). Imaging or biodistribution studies (n = 3-5) were conducted on mice with tumor volumes of 100-200 mm^3. The Panc1 orthotopic tumor model was established by surgically implanting a 3-5 mm^3 section of Panc1 tumor xenograft directly onto the pancreas. The implanted tumors were allowed to grow and were ready for imaging after 10 days of implantation.
(§2) Mice with 100-200 mm^3 tumor volume were used for ex vivo biodistribution studies. For radiotracer pharmacokinetics and dosimetry studies, mice with Panc1 tumor xenograft received ~80 µCi (2.96 MBq) [^68Ga]AJ201 and were sacrificed at pre-determined time points (5, 30, 60, 90 and 120 min). All other mice were injected with ~50 µCi (1.85 MBq; 0.2 to 0.5 nmol) Ga-68 labeled radiotracer and were sacrificed at 60 min. The selected tissues were collected, weighed, counted, and their %ID/g values calculated for biodistribution analysis. For pharmacokinetics and dosimetry studies, selected tissues included blood, muscle, tumor, thymus, heart, lung, liver, pancreas, stomach, small intestine, large intestine, spleen, adrenals, kidney, bladder, femur, brain and tumor xenografts. For other studies, selected tissues were blood, muscle, tumor, heart, lung, liver, pancreas, small intestine, spleen, kidney.

Ex vivo biodistribution [3] = format: in vivo, mice; details: mouse, in vivo, 50 uCi, total radioactivity
Procedure: as §2

T1 sequence (P29317 25-534 limits assumed): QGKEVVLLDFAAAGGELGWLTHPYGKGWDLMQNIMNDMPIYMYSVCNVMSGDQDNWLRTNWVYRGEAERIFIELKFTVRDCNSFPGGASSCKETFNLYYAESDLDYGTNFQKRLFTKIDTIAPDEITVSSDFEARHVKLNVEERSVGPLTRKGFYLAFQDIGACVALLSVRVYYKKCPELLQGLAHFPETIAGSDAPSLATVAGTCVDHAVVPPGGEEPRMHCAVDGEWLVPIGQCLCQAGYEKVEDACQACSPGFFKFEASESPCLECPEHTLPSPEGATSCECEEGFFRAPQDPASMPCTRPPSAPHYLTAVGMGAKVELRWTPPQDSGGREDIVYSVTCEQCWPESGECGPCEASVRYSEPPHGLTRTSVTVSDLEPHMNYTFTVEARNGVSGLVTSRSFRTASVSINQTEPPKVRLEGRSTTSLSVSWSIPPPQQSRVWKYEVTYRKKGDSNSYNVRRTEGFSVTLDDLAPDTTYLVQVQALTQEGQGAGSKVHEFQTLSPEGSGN
T2 sequence (Q03145 26-535 limits assumed): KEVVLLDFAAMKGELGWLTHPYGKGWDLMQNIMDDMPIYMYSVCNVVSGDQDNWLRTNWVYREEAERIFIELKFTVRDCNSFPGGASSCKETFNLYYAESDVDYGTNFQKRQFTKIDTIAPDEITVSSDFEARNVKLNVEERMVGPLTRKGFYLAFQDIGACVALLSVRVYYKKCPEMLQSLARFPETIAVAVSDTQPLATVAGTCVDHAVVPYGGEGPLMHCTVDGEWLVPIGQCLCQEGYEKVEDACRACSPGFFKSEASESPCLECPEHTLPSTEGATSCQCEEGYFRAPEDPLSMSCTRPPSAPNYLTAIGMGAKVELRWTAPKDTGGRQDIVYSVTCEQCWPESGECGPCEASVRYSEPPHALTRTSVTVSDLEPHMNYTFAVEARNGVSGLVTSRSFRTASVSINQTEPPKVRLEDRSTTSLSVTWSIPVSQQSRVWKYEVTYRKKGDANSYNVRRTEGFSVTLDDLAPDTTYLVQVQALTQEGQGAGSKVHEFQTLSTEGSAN

H&E histology of kidney [1]: no significant pathological changes
H&E histology of liver [1]: no significant pathological changes
H&E histology of lungs [1]: no significant pathological changes
H&E staining of lung, liver and kidney sections [1]: no visible histological abnormalities
Compound: CC(C)C[C@@H]1NC(=O)[C@@H]2CSCCC(=O)N3CN(CN(C3)C(=O)CCSC[C@H](NC(=O)[C@H](CC(=O)O)NC(=O)[C@H](CCCCNC(=N)N)NC(=O)[C@H](C)NC(=O)CNC(=O)CNC(=O)CNC(=O)CNC(=O)CNC(=O)CN3CCN(CC(=O)O)CCN(CC(=O)O)CCN(CC(=O)O)CC3)C(=O)N3C[C@H](O)C[C@H]3C(=O)N[C@@H](CC(C)C)C(=O)N[C@@H](C(C)C)C(=O)N[C@@H](CC(N)=O)C(=O)N3CCC[C@H]3C(=O)N[C@@H](CC(C)C)C(=O)N2)C(=O)CCSC[C@@H](C(N)=O)NC(=O)[C@H](CCCCNC(=N)N)NC(=O)[C@H](Cc2c[nH]c3ccccc23)NC(=O)[C@@H](CC(=O)O)NC(=O)[C@@H]2CCCN2C(=O)[C@H](Cc2c[nH]cn2)NC1=O [[^225Ac]AJ210, metal not drawn] ({DOTA}-GGGGGA[hArg]DC[Hyp]LVNPLCLHP[dD]W[hArg]C-NH2; linker 9-16-23 via TATA)

Compound: CC(C)C[C@@H]1NC(=O)[C@@H]2CSCCC(=O)N3CN(CN(C3)C(=O)CCSC[C@H](NC(=O)[C@H](CC(=O)O)NC(=O)[C@H](CCCCNC(=N)N)NC(=O)[C@H](C)NC(=O)CNC(=O)CN(C)C(=O)CN(C)C(=O)CN(C)C(=O)[C@H](CCCNC(=N)N)NC(=O)CNC(=O)CCOCCOCCNC(=O)CN3CCN(CC(=O)O)CCN(CC(=O)O)CC3)C(=O)N3C[C@H](O)C[C@H]3C(=O)N[C@@H](CC(C)C)C(=O)N[C@@H](C(C)C)C(=O)N[C@@H](CC(N)=O)C(=O)N3CCC[C@H]3C(=O)N[C@@H](CC(C)C)C(=O)N2)C(=O)CCSC[C@@H](C(N)=O)NC(=O)[C@H](CCCCNC(=N)N)NC(=O)[C@H](Cc2c[nH]c3ccccc23)NC(=O)[C@@H](CC(=O)O)NC(=O)[C@@H]2CCCN2C(=O)[C@H](Cc2c[nH]cn2)NC1=O [AJ201] ({NOTA-PEG2}-GR[Sar][Sar][Sar]GA[hArg]DC[Hyp]LVNPLCLHP[dD]W[hArg]C-NH2; linker 10-17-24 via TATA)
koff (human EphA2): 0.00133 s⁻¹
kon (human EphA2): 7.6e+06 M⁻¹ s⁻¹
koff (mouse EphA2): 0.00302 s⁻¹
kon (mouse EphA2): 5.03e+06 M⁻¹ s⁻¹

tissue uptake at 1 h (Ex vivo biodistribution [2]; Blood uptake): 0.96 ± 0.33 %ID/g
tissue uptake at 1 h (Ex vivo biodistribution [2]; Femur uptake): 0.38 ± 0.08 %ID/g
tissue uptake at 1 h (Ex vivo biodistribution [2]; Heart uptake): 0.84 ± 0.14 %ID/g
tissue uptake at 1 h (Ex vivo biodistribution [2]; Kidney uptake): 24.4 ± 9.98 %ID/g
tissue uptake at 1 h (Ex vivo biodistribution [2]; Liver uptake): 0.34 ± 0.06 %ID/g
tissue uptake at 1 h (Ex vivo biodistribution [2]; Lung uptake): 0.39 ± 0.08 %ID/g
tissue uptake at 1 h (Ex vivo biodistribution [2]; Muscle uptake): 0.4 ± 0.16 %ID/g
tissue uptake at 1 h (Ex vivo biodistribution [2]; Pancreas uptake): 0.3 ± 0.08 %ID/g
tissue uptake at 1 h (Ex vivo biodistribution [2]; Small intestine uptake): 0.62 ± 0.22 %ID/g
tissue uptake at 1 h (Ex vivo biodistribution [2]; Spleen uptake): 0.74 ± 0.22 %ID/g
tissue uptake at 1 h (Ex vivo biodistribution [2]; Stomach uptake): 0.09 ± 0.03 %ID/g
tissue uptake at 1 h (Ex vivo biodistribution [2]; Tumor uptake): 3.72 ± 0.66 %ID/g
tissue to tissue ratio at 1 h (Ex vivo biodistribution [2]; Tumor/Muscle ratio): 10.3 ± 4.01
tissue to tissue ratio at 1 h (Ex vivo biodistribution [2]; Tumor/Pancreas ratio): 13.1 ± 4.11
tissue to tissue ratio at 1 h (Ex vivo biodistribution [2]; Tumor/blood ratio): 4.09 ± 0.97
tissue uptake at 1 h (Ex vivo biodistribution [3]; Blood uptake): 0.56 ± 0.14 %ID/g
tissue uptake at 1 h (Ex vivo biodistribution [3]; Femur uptake): 0.29 ± 0.07 %ID/g
tissue uptake at 1 h (Ex vivo biodistribution [3]; Heart uptake): 0.24 ± 0.05 %ID/g
tissue uptake at 1 h (Ex vivo biodistribution [3]; Kidney uptake): 59.9 ± 16.4 %ID/g
tissue uptake at 1 h (Ex vivo biodistribution [3]; Liver uptake): 0.26 ± 0.05 %ID/g
tissue uptake at 1 h (Ex vivo biodistribution [3]; Lung uptake): 0.57 ± 0.13 %ID/g
tissue uptake at 1 h (Ex vivo biodistribution [3]; Muscle uptake): 0.19 ± 0.04 %ID/g
tissue uptake at 1 h (Ex vivo biodistribution [3]; Pancreas uptake): 0.24 ± 0.06 %ID/g
tissue uptake at 1 h (Ex vivo biodistribution [3]; Small intestine uptake): 0.64 ± 0.47 %ID/g
tissue uptake at 1 h (Ex vivo biodistribution [3]; Spleen uptake): 0.35 ± 0.07 %ID/g
tissue uptake at 1 h (Ex vivo biodistribution [3]; Stomach uptake): 0.17 ± 0.07 %ID/g
tissue uptake at 1 h (Ex vivo biodistribution [3]; Tumor uptake): 1.06 ± 0.25 %ID/g
tissue to tissue ratio at 1 h (Ex vivo biodistribution [3]; Tumor/Muscle ratio): 5.61 ± 0.69
tissue to tissue ratio at 1 h (Ex vivo biodistribution [3]; Tumor/Pancreas ratio): 4.65 ± 1.46
tissue to tissue ratio at 1 h (Ex vivo biodistribution [3]; Tumor/blood ratio): 1.94 ± 0.44
Compound: CC(C)C[C@@H]1NC(=O)[C@@H]2CSCCC(=O)N3CN(CN(C3)C(=O)CCSC[C@H](NC(=O)[C@H](CC(=O)O)NC(=O)[C@H](CCCCNC(=N)N)NC(=O)[C@H](C)NC(=O)CNC(=O)CNC(=O)CNC(=O)CNC(=O)CNC(=O)CN3CCN(CC(=O)O)CCN(CC(=O)O)CCN(CC(=O)O)CC3)C(=O)N3C[C@H](O)C[C@H]3C(=O)N[C@@H](CC(C)C)C(=O)N[C@@H](C(C)C)C(=O)N[C@@H](CC(N)=O)C(=O)N3CCC[C@H]3C(=O)N[C@@H](CC(C)C)C(=O)N2)C(=O)CCSC[C@@H](C(N)=O)NC(=O)[C@H](CCCCNC(=N)N)NC(=O)[C@H](Cc2c[nH]c3ccccc23)NC(=O)[C@@H](CC(=O)O)NC(=O)[C@@H]2CCCN2C(=O)[C@H](Cc2c[nH]cn2)NC1=O [[^68Ga]AJ210, metal not drawn] ({DOTA}-GGGGGA[hArg]DC[Hyp]LVNPLCLHP[dD]W[hArg]C-NH2; linker 9-16-23 via TATA)

Source: PMC11984392, “EphA2-targeted alpha-particle theranostics for enhancing PDAC treatment” (Theranostics, 2025)
